Tests used:
Format in all cases: functional
[1] = test system: NCI-H522; experiment: Growth inhibition of human NCI-H522 cells assessed as cell growth at 10^-7 M after 48 hrs by sulforhodamine B assay; conditions: NCI-H522, 48 h, read-out: Activity
[2] = test system: A549; experiment: Growth inhibition of human A549/ATCC cells assessed as cell growth at 10^-7 M after 48 hrs by sulforhodamine B assay; conditions: A549, 48 h, read-out: Activity
[3] = test system: NCI-H522; experiment: Growth inhibition of human NCI-H522 cells assessed as cell growth at 10^-6 M after 48 hrs by sulforhodamine B assay; conditions: NCI-H522, 48 h, read-out: Activity
[4] = test system: RXF 393; experiment: Growth inhibition of human RXF393 cells assessed as cell growth at 10^-4 M after 48 hrs by sulforhodamine B assay; conditions: RXF 393, 48 h, read-out: Activity
[5] = test system: SR; experiment: Growth inhibition of human SR cells assessed as cell growth at 10^-8 M after 48 hrs by sulforhodamine B assay; conditions: read-out: Activity
[6] = test system: SF-268; experiment: Growth inhibition of human SF268 cells assessed as cell growth at 10^-8 M after 48 hrs by sulforhodamine B assay; conditions: SF-268, 48 h, read-out: Activity
[7] = test system: MOLT-4; experiment: Growth inhibition of human MOLT4 cells assessed as cell growth at 10^-4 M after 48 hrs by sulforhodamine B assay; conditions: MOLT-4, 48 h, read-out: Activity
[8] = test system: SF-539; experiment: Growth inhibition of human SF539 cells assessed as cell growth at 10^-4 M after 48 hrs by sulforhodamine B assay; conditions: SF-539, 48 h, read-out: Activity
[9] = test system: PC-3; experiment: Growth inhibition of human PC3 cells assessed as cell growth at 10^-8 M after 48 hrs by sulforhodamine B assay; conditions: PC-3, 48 h, read-out: Activity
[10] = test system: SNB-19; experiment: Growth inhibition of human SNB19 cells assessed as cell growth at 10^-5 M after 48 hrs by sulforhodamine B assay; conditions: SNB-19, 48 h, read-out: Activity
[11] = test system: OVCAR-5; experiment: Growth inhibition of human OVCAR5 cells assessed as cell growth at 10^-6 M after 48 hrs by sulforhodamine B assay; conditions: OVCAR-5, 48 h, read-out: Activity
[12] = test system: T47D; experiment: Growth inhibition of human T47D cells assessed as cell growth at 10^-5 M after 48 hrs by sulforhodamine B assay; conditions: read-out: Activity
[13] = test system: SNB-19; experiment: Growth inhibition of human SNB19 cells assessed as cell growth at 10^-8 M after 48 hrs by sulforhodamine B assay; conditions: SNB-19, 48 h, read-out: Activity
[14] = test system: ACHN; experiment: Growth inhibition of human ACHN cells assessed as cell growth at 10^-6 M after 48 hrs by sulforhodamine B assay; conditions: read-out: Activity
[15] = test system: A549; experiment: Growth inhibition of human A549/ATCC cells assessed as cell growth at 10^-4 M after 48 hrs by sulforhodamine B assay; conditions: A549, 48 h, read-out: Activity
[16] = test system: SF-295; experiment: Growth inhibition of human SF295 cells assessed as cell growth at 10^-5 M after 48 hrs by sulforhodamine B assay; conditions: SF-295, 48 h, read-out: Activity
[17] = test system: NCI-H226; experiment: Growth inhibition of human NCI-H226 cells assessed as cell growth at 10^-6 M after 48 hrs by sulforhodamine B assay; conditions: NCI-H226, 48 h, read-out: Activity
[18] = test system: DU-145; experiment: Growth inhibition of human DU145 cells assessed as cell growth at 10^-6 M after 48 hrs by sulforhodamine B assay; conditions: DU-145, 48 h, read-out: Activity
[19] = test system: CAKI-1; experiment: Growth inhibition of human CAKI-1 cells assessed as cell growth at 10^-8 M after 48 hrs by sulforhodamine B assay; conditions: CAKI-1, 48 h, read-out: Activity
[20] = test system: SN12C; experiment: Growth inhibition of human SN12C cells assessed as cell growth at 10^-5 M after 48 hrs by sulforhodamine B assay; conditions: read-out: Activity
[21] = test system: SK-MEL-28; experiment: Growth inhibition of human SK-MEL-28 cells assessed as cell growth at 10^-5 M after 48 hrs by sulforhodamine B assay; conditions: SK-MEL-28, 48 h, read-out: Activity
[22] = test system: NCI-H522; experiment: Growth inhibition of human NCI-H522 cells assessed as cell growth at 10^-5 M after 48 hrs by sulforhodamine B assay; conditions: NCI-H522, 48 h, read-out: Activity
[23] = test system: HCT-116; experiment: Growth inhibition of human HCT116 cells assessed as cell growth at 10^-4 M after 48 hrs by sulforhodamine B assay; conditions: HCT-116, 48 h, read-out: Activity
[24] = test system: COLO 205; experiment: Growth inhibition of human COLO205 cells assessed as cell growth at 10^-5 M after 48 hrs by sulforhodamine B assay; conditions: COLO 205, 48 h, read-out: Activity
[25] = test system: IGROV-1; experiment: Growth inhibition of human IGROV1 cells assessed as cell growth at 10^-7 M after 48 hrs by sulforhodamine B assay; conditions: IGROV-1, 48 h, read-out: Activity
[26] = test system: M14; experiment: Growth inhibition of human M14 cells assessed as cell growth at 10^-8 M after 48 hrs by sulforhodamine B assay; conditions: M14, 48 h, read-out: Activity
[27] = test system: BT-549; experiment: Growth inhibition of human BT549 cells assessed as cell growth at 10^-5 M after 48 hrs by sulforhodamine B assay; conditions: BT-549, 48 h, read-out: Activity
[28] = test system: U-251; experiment: Growth inhibition of human U251 cells assessed as cell growth at 10^-7 M after 48 hrs by sulforhodamine B assay; conditions: U-251, 48 h, read-out: Activity
[29] = test system: RPMI-8226; experiment: Growth inhibition of human RPMI8226 cells assessed as cell growth at 10^-6 M after 48 hrs by sulforhodamine B assay; conditions: RPMI-8226, 48 h, read-out: Activity
[30] = test system: NCI-H226; experiment: Growth inhibition of human NCI-H226 cells assessed as cell growth at 10^-4 M after 48 hrs by sulforhodamine B assay; conditions: NCI-H226, 48 h, read-out: Activity
[31] = test system: SW-620; experiment: Growth inhibition of human SW620 cells assessed as cell growth at 10^-4 M after 48 hrs by sulforhodamine B assay; conditions: SW-620, 48 h, read-out: Activity
[32] = test system: NCI-H322M; experiment: Growth inhibition of human NCI-H322M cells assessed as cell growth at 10^-7 M after 48 hrs by sulforhodamine B assay; conditions: read-out: Activity
[33] = test system: SK-MEL-28; experiment: Growth inhibition of human SK-MEL-28 cells assessed as cell growth at 10^-8 M after 48 hrs by sulforhodamine B assay; conditions: SK-MEL-28, 48 h, read-out: Activity
[34] = test system: HOP-92; experiment: Growth inhibition of human HOP92 cells assessed as cell growth at 10^-5 M after 48 hrs by sulforhodamine B assay; conditions: HOP-92, 48 h, read-out: Activity
[35] = test system: OVCAR-5; experiment: Growth inhibition of human OVCAR5 cells assessed as cell growth at 10^-4 M after 48 hrs by sulforhodamine B assay; conditions: OVCAR-5, 48 h, read-out: Activity
[36] = test system: DU-145; experiment: Growth inhibition of human DU145 cells assessed as cell growth at 10^-5 M after 48 hrs by sulforhodamine B assay; conditions: DU-145, 48 h, read-out: Activity
[37] = test system: DU-145; experiment: Growth inhibition of human DU145 cells assessed as cell growth at 10^-8 M after 48 hrs by sulforhodamine B assay; conditions: DU-145, 48 h, read-out: Activity
[38] = test system: HCT-116; experiment: Growth inhibition of human HCT116 cells assessed as cell growth at 10^-7 M after 48 hrs by sulforhodamine B assay; conditions: HCT-116, 48 h, read-out: Activity

Structure (SMILES)	growth at 0.1 µM [1] [%]	growth at 0.1 µM [2] [%]	growth at 1 µM [3] [%]	growth at 100 µM [4] [%]	growth at 0.01 µM [5] [%]	growth at 0.01 µM [6] [%]	growth at 100 µM [7] [%]	growth at 100 µM [8] [%]	growth at 0.01 µM [9] [%]	growth at 10 µM [10] [%]	growth at 1 µM [11] [%]	growth at 10 µM [12] [%]	growth at 0.01 µM [13] [%]	growth at 1 µM [14] [%]	growth at 100 µM [15] [%]	growth at 10 µM [16] [%]	growth at 1 µM [17] [%]	growth at 1 µM [18] [%]	growth at 0.01 µM [19] [%]	growth at 10 µM [20] [%]	further results
COc1cc(-c2nn(-c3cccc(NC(=O)c4ccccc4)c3)cc2-c2ccncc2)ccc1Cl	85	94	15	-8	94	95	33	-22	94	30	87	31	99	44	6	-27	64	44	94	34	growth at 10 µM [21]: 43%; growth at 10 µM [22]: 4%; growth at 100 µM [23]: 9%; growth at 10 µM [24]: -31%; growth at 0.1 µM [25]: 91%; growth at 0.01 µM [26]: 95%; growth at 10 µM [27]: 26%; growth at 0.1 µM [28]: 98%; growth at 1 µM [29]: 46%; growth at 100 µM [30]: 24%; growth at 100 µM [31]: 14%; growth at 0.1 µM [32]: 85%; growth at 0.01 µM [33]: 99%; growth at 10 µM [34]: -8%; growth at 100 µM [35]: 8%; growth at 10 µM [36]: 13%; growth at 0.01 µM [37]: 104%; growth at 0.1 µM [38]: 95%
COc1cc(-c2nn(-c3cccc(NC(=O)c4ccc(N5CCOCC5)c(C(F)(F)F)c4)c3)cc2-c2ccncc2)ccc1Cl	51	69	17	-27	91	97	2	-40	92	22	57	19	92	39	4	-64	28	16	94	14	growth at 10 µM [21]: 14%; growth at 10 µM [22]: -14%; growth at 100 µM [23]: 2%; growth at 10 µM [24]: -84%; growth at 0.1 µM [25]: 81%; growth at 0.01 µM [26]: 98%; growth at 10 µM [27]: 25%; growth at 0.1 µM [28]: 88%; growth at 1 µM [29]: 16%; growth at 100 µM [30]: 16%; growth at 100 µM [31]: 10%; growth at 0.1 µM [32]: 100%; growth at 0.01 µM [33]: 100%; growth at 10 µM [34]: -26%; growth at 100 µM [35]: 2%; growth at 10 µM [36]: 13%; growth at 0.01 µM [37]: 108%; growth at 0.1 µM [38]: 75%

Reference: ChEMBL document CHEMBL2440076, “New triarylpyrazoles as broad-spectrum anticancer agents: design, synthesis, and biological evaluation” (Eur J Med Chem, 2013)
